How the values were obtained:
[1] = molecular target: T1, Organic anion transporter 3 (Homo sapiens, UniProt Q8TCC7); test: TP_TRANSPORTER: trans-stimulation in Xenopus laevis oocytes; format: functional, cell-based; details: oocyte
T1 sequence (Q8TCC7 whole entry): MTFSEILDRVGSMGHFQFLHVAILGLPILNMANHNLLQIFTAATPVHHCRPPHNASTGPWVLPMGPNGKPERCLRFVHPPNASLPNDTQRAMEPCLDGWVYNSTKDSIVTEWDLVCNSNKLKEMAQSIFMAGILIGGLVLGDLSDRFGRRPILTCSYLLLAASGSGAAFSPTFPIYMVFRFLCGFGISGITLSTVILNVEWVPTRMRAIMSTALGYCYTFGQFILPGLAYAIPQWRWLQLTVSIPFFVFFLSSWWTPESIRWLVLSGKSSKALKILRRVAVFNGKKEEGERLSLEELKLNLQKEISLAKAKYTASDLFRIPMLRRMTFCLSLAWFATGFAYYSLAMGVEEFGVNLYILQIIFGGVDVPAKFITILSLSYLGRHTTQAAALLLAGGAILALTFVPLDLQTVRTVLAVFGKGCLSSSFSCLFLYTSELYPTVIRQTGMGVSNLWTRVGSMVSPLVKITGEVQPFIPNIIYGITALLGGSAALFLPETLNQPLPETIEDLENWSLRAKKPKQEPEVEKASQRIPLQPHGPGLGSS

[2] = molecular target: T1, Organic anion transporter 3; test: TP_TRANSPORTER: inhibition of Estrone sulfate in Xenopus laevis oocytes; format: functional, cell-based, Oocyte

| SMILES | Activity [1] | Ki [2] [µM] |
| --- | --- | --- |
| O=C(O)CCC(=O)C(=O)O [ALPHA-KETOGLUTARIC ACID] | substrate [] | – |
| Nc1ccc(C(=O)NCC(=O)O)cc1 [AMINOHIPPURIC ACID] | substrate [] | – |
| CN/C(=N/CCSCc1nc[nH]c1C)NC#N [CIMETIDINE] | substrate [] | – |
| O=C(O)CCCC(=O)O [GLUTARATE] | substrate [] | – |
| O=c1[nH]c(=O)c2[nH]c(=O)[nH]c2[nH]1 [URIC ACID] | substrate [] | 275 |
